Assay results from patent publication US6207393A, “Inhibition of intracellular signal transduction by 14-3-3-binding peptides” (Washington University, priority 1999, dated 2001).
“And” between values parts separate entries of the source, which are not always exact repeats. Identical values can stand only once. Where a SMILES comes first, the peptide text is derived from it. Where no end group is shown, it is not given here. [ ]: non-standard residue; d: D form. pS = N[C@@H](COP(=O)(O)O)C(=O)O

Tests used:
14-3-3 zeta [1] = target: T1, 14-3-3 zeta (Homo sapiens, UniProt P63104); test: Displacement of 32P-labeled phosphorylated Raf-259 peptide from immobilized GST/14-3-3 zeta (scintigraphy); format: binding; settings: non-radiolabeled competitors
T1 construct: made in house; host or cells: E. coli DH5α (vector pGEX-KT)
T1 sequence (P63104 1-245): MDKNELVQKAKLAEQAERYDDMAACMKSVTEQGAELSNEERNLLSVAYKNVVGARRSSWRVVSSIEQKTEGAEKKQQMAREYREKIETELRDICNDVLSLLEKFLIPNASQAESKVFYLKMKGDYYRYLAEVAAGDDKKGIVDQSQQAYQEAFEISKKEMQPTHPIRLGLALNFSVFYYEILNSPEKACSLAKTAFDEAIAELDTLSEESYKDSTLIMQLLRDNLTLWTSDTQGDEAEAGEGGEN
Experimental: The 14-3-3 protein isoforms for use in binding studies with the above peptides were prepared as proteins fused with glutathione-S-transferase (GST) and immobilized to glutathione agarose beads. GST/14-3-3 fusion proteins were made by generating BamHI and EcoRI restriction endonuclease sites (underlined) at the 5' and 3' ends respectively of the 14-3-3 cDNAs by polymerase chain reaction (PCR) using the following isoform sequence specific pairs of primers: 14-3-3 beta, […] (SEQ ID NO: 11), […] (SEQ ID NO: 12); 14-3-3 eta […] (SEQ ID NO: 13), […] (SEQ ID NO: 14); 14-3-3 tau […] (SEQ ID NO: 15), […] (SEQ ID NO: 16); 14-3-3 zeta […] (SEQ ID NO: 17), […] (SEQ ID NO: 18). The cDNA products were digested with BamHI and EcoRI, subcloned into the vector pGEX-KT (Guan and Dixon, Anal Biochem 192: 262-7, 1991 which is incorporated by reference). The vector was used to transform the DH5α strain of E. Coli. GST-14-3-3 fusion protein expression in log-growth phase bacterial cultures was accomplished by induction with 100 μM isopropyl β-D-thiogalactopyranoside (IPTG; Gold Biotechnology, St. Louis) for 4 hours. Cells were disrupted by sonication and lysates, containing 1% Triton X-100, were incubated with glutathione agarose beads (Sigma, St. Louis) at 4° C. overnight. Fusion proteins were eluted by incubation with 10 mM reduced glutathione (Sigma, St. Louis) in phosphate buffered saline for 1 hour at room temperature, dialyzed in phosphate buffered saline and quantitated by Coomassie staining SDS polyacrylamine gels compared against bovine serum albumin standards.
The Raf-259 peptide (SEQ ID NO: 4) was phosphorylated in vitro using protein kinase A (PKA) and [^32 P]-γ-ATP following the manufacturers instruction (PKA, New England Biolabs) with 20 μCi of [^32 P]-γ-ATP (NEN-Dupont, 6000 Ci/mmol). The efficiency of phosphorylation was calculated to be between 7 and 12% based upon the specific activity of the labelled peptide.
The labeled peptide was then incubated with immobilized 14-3-3 zeta fusion protein and binding of the labelled peptide was measured. […] Binding was also sequence specific. […]

14-3-3 protein = target: T2, 14-3-3 protein (Homo sapiens, UniProt P63104); test: Degenerate peptide pools tested as competitive inhibitors of 14-3-3 binding; settings: competitor peptide 10 μM; no peptide = 100%
T2 sequence (P63104 1-245): T1 sequence (P63104 1-245)
Experimental: A series of degenerate peptides based upon phosphoserine Raf-621 peptide (SEQ ID NO: 10) were synthesized to confirm that the arginine in the -3 position, the serine in the -2 position and the proline in the +2 position were the critical motif residues (Table 5). Six pools of peptides were synthesized with all twenty amino acids placed in positions -5, -3, -2, -1, +1 and +2 respectively. Each pool of twenty peptides was tested as competitive inhibitors for binding. We reasoned that if a particular position is not critical for binding, the pool of twenty peptides should compete as well as wild-type peptide for binding. On the other hand, if a particular amino acid is required at a particular position, only a small fraction of the pool will be able to compete for binding, thus increasing (up to 20 fold) the concentration of peptide needed to inhibit binding.

14-3-3 tau = target: T3, 14-3-3 tau (Homo sapiens, UniProt P27348); test: SPR competitive inhibition of 14-3-3 tau binding to phosphorylated Raf-259 peptide; settings: isoform tau
T3 construct: made in house; host or cells: E. coli DH5α (vector pGEX-KT)
T3 sequence (P27348 1-245): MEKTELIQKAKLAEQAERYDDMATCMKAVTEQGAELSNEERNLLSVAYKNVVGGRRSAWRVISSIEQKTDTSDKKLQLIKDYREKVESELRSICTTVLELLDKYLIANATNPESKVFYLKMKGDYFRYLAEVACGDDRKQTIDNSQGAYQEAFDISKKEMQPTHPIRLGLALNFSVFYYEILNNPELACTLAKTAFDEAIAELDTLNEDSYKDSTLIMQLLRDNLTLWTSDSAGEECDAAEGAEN
Experimental: (§1) The ability of each peptide to inhibit binding of 14-3-3 zeta to the phosphorylated peptide was then tested in a range of concentrations between 1 and 50 μM. 14-3-3 zeta was prepared according to the methods in Example 1 and binding affinities and specificities were determined using the peptides in Table 2. The 14-3-3 zeta fusion proteins (0.5-1.0 μM) were pre-incubated with a given peptide at concentrations between 1 μM and 50 μM. 14-3-3 zeta was then infused across a sensor chip surface which had been previously coupled with the phosphorylated Raf-259 peptide (SEQ ID NO: 4). IC50 values were determined by plotting the concentration of competitor peptide required to achieve a 50% reduction in equilibrium binding.
(§2) There are seven known isoforms of 14-3-3 which form homo- and heterodimers in vivo. If different isoforms of 14-3-3 could bind to proteins with distinct specificities, heterodimeric forms of 14-3-3 might function as modular linker proteins, bringing together different proteins into a single complex. We were, therefore, interested in determining whether different 14-3-3 isoforms recognize phosphoserine in a sequence specific fashion. This hypothesis was tested by expressing and purifying three other 14-3-3 isoforms, eta, beta and tau, and measuring their affinity towards the panel of phosphorylated peptides generated above. Using the Surface Plasmon Resonance method, the "on" and "off" rates for 14-3-3 binding to the phosphorylated Raf-259 peptide were calculated (Table 6).
(§3) Competitive inhibition with the mutated phosphorylated Raf-1 peptides was used to determine whether their specificities were similar (Table 7). In each case, the calculated IC50 s were very similar to those calculated for 14-3-3 zeta.

14-3-3 zeta [2] = target: T1, 14-3-3 zeta; test: SPR competitive inhibition of 14-3-3 zeta binding to chip-coupled phosphorylated Raf-259 peptide; settings: 14-3-3 zeta 0.5-1.0 μM; competitor 1-50 μM; relative affinity only
Experimental: as §1

14-3-3 beta = target: T4, 14-3-3 beta (Homo sapiens, UniProt P31946); test: SPR competitive inhibition of 14-3-3 beta binding to phosphorylated Raf-259 peptide; settings: isoform beta
T4 construct: made in house; host or cells: E. coli DH5α (vector pGEX-KT)
T4 sequence (P31946 1-246): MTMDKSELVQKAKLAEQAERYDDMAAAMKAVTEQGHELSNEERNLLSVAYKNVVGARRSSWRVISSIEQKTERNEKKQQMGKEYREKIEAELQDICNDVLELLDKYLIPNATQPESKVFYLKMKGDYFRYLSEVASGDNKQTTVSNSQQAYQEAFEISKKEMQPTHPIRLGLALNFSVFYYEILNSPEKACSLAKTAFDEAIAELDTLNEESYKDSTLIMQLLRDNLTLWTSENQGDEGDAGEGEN
Experimental: as §1, §2, §3

14-3-3 eta = target: T5, 14-3-3 eta (Homo sapiens, UniProt Q04917); test: SPR competitive inhibition of 14-3-3 eta binding to phosphorylated Raf-259 peptide; settings: isoform eta
T5 construct: made in house; host or cells: E. coli DH5α (vector pGEX-KT)
T5 sequence (Q04917 1-246): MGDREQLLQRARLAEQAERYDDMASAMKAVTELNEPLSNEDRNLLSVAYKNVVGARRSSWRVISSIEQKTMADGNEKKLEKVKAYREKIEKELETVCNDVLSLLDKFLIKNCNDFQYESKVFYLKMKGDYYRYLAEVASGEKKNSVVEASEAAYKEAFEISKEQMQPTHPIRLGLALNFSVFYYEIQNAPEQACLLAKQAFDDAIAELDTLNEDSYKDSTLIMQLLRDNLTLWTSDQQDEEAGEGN
Experimental: as §1, §2, §3

14-3-3 zeta [3] = target: T1, 14-3-3 zeta; test: Surface plasmon resonance, GST-14-3-3 zeta binding to immobilized biotinylated Raf-259 peptide (binding and kinetics); settings: 14-3-3 zeta
Experimental: These experiments were performed using the BIAcore 2000 (Pharmacia). The basic principles and detection methods have been reviewed previously (Jonsson et al. Biotech. 11:620-7, 1991; Jonsson et al. Ann Bio Clin 51:19-26, 1993 which are incorporated by reference). In brief, 5 μl of the biotinylated raf-259 peptide (1 nM) was immobilized onto streptavidin-coated (SA5, Pharmacia) sensor chips at a flow rate of 5 μl/min at 25° C. […] To phosphorylate the immobilized peptides, 5 U of PKA in a buffer containing 200 μM ATP in 50 μl was infused over the chip at a flow rate of 2 μl/min at 30° C.
Because the surface plasmon resonance detects binding in real time, this method can be used to directly determine the rates of association (kon) and dissociation (koff). For these kinetic measurements, GST/14-3-3 fusion proteins were injected over a range of concentrations between 200 nM and 5 μM. The "on" rate, kon, was determined by calculating dR/dt for the initial linear portion of association using the Biaevaluation software (Pharmacia). Because ligand rebinding to the sensor chip can affect the "off" rate (koff, Panayotou et al. Mol Cell Biol 13:3567-76, 1993 which is incorporated by reference), we measured the "off" rate in the presence of 50 μM free ligand by using the coinject function of the Biacore. The "off" rate measured in the absence of 50 μM free ligand was approximately 10-fold lower.
The biotinylated, […] Raf-1 peptide (SEQ ID NO: 4) was coupled to avidin coated chip surface to study the kinetics of its binding to 14-3-3 zeta. The association rate was determined to be approximately 2.3×10^4 M^-1×s^-1 and the dissociation rate was determined to be approximately 2.8×10^-3 s^-1. To minimize the effects of protein rebinding to the surface of the sensor chip, the dissociation rate was measured in the presence of 50 μM free phosphorylated Raf-1 peptide.

N[C@@H](COP(=O)(O)O)C(=O)O [free phosphoserine, phosphoserine]
displacement of bound labeled phosphorylated peptide from 14-3-3 zeta (14-3-3 zeta [1]): Neither

CC[C@H](C)[C@H](NC(=O)[C@H](CCCCN)NC(=O)[C@@H]1CCCN1C(=O)[C@@H](N)CC(C)C)C(=O)N[C@@H](CC(N)=O)C(=O)N[C@@H](CCCNC(=N)N)C(=O)N[C@@H](CO)C(=O)N[C@@H](C)C(=O)N[C@@H](COP(=O)(O)O)C(=O)N[C@@H](CCC(=O)O)C(=O)N1CCC[C@H]1C(=O)N[C@@H](CO)C(=O)N[C@@H](CC(C)C)C(=O)N[C@@H](Cc1c[nH]cn1)C(=O)N[C@@H](CCCNC(=N)N)C(=O)O [pS-Raf-621, Leu-Pro-Lys-Ile-Asn-Arg-Ser-Ala-Xaa-Glu-Pro-Ser-Leu-His-Arg] (H-LPKINRSA[pS]EPSLHR-OH)
% BINDING @ 10 μM (14-3-3 protein): < 5%
IC50 (14-3-3 tau): 2000 nM
IC50 (14-3-3 zeta [2]): ~1000 nM and 1000 nM
IC50 (14-3-3 beta): 2000 nM
IC50 (14-3-3 eta): 3 µM

LSQRQRSTSTPNVHM [Raf-259, LSQRQRSTSTPNVHM, reference compound]
Kd (14-3-3 zeta [3]; KD = koff/kon, read-out: apparent KD measured by SPR): ~122 nM
koff (14-3-3 zeta [3]; in the presence of 50 μM free phosphorylated Raf-1 peptide, read-out: dissociation rate): ~0.0028 s⁻¹
kon (14-3-3 zeta [3]; read-out: association rate): ~23000 M⁻¹ s⁻¹
